Laboratory results as given in a melting point compilation (Tetko et al.; mined from patent text by program, amines drawn as free bases though some values may be those of a salt).

COC(=O)c1ccc(C(=O)NCc2cc(O)cc(O)c2)cc1Cl gave a melting point of 152 to 155 °C. With COc1ccc(CN(C)CCCc2ccc(NC(=O)c3cccc4c(=O)c5cccc(OC)c5sc34)cc2)cc1OC the melting point was 144 to 146 °C. C1=C(CCc2ccccc2)CCN(Cc2n[nH]c3c2CCc2ccccc2-3)C1 showed a melting point of 173 to 174 °C. With CCCC(=O)Nc1n[nH]c2cc(-c3cccnc3)ccc12 the melting point was 205 °C. For Cc1cccc(C(=O)NC(C)C)c1NC(=O)c1cnc(C(F)(F)F)nc1C, the melting point was 248 to 251 °C. Work on c1ccn(Nc2ccncn2)c1 yielded a melting point of 134 to 136 °C. With CCCCN(CCCC)c1ccc(C=Cc2ccc(C=CC3=C(C#N)C(=C(C#N)C#N)OC3(C)C)s2)c(OCc2ccccc2)c1 the melting point was 218 to 219 °C. Molecule N#CN1CCC(c2nn(-c3ccc(C(F)(F)F)cc3)c3ccccc23)CC1 has a melting point of 135 to 136 °C. Work on Nc1ccc(-c2noc3cc(F)ccc23)cc1[N+](=O)[O-] yielded a melting point of 239 °C. CCC(C)COc1ccc(-c2ccc(OS(=O)(=O)c3ccc(C)cc3)cc2)cc1 (centres undefined) showed a melting point of 94 to 97 °C. For COc1cccc(OC)c1-c1nc2cnncc2[nH]1, the melting point was 207 °C. With Fc1cccc(F)c1-c1nc(/C=C/c2ccc(C3CCCCC3)cc2)no1 the melting point was 86 to 87 °C. O=C1N(Cc2ccccc2)c2cc(Cl)ccc2N=C2CCCC12Cc1ccccc1 (centres undefined) gave a melting point of 139 to 141 °C. Work on Fc1cccc(F)c1Cn1c(-c2c(F)cccc2F)nc2c(CCl)cccc21 yielded a melting point of 143 to 144 °C. Molecule OCc1c(Cl)cc(Cl)c2ccc(Cl)cc12 has a melting point of 107 to 112 °C. Work on CCCCCCCCCCCCCC(=O)Nc1ccc(C2=NNC(=O)NC2C)cc1 (centres undefined) yielded a melting point of 206 to 209 °C. Molecule CN(C)c1ccc(C=NC2CCCCC2N=Cc2ccc(O)cc2O)c(O)c1 (centres undefined) has a melting point of 202 °C. For C[C@H](NC(=O)Nc1cccc(CC(=O)O)c1)C(=O)N1[C@@H](c2ccccc2F)SC[C@H]1C(=O)OC(C)(C)C, the melting point was 110 °C. Molecule CN1N=C(c2ccc(F)cc2)c2cc(F)ccc2CS1(=O)=O has a melting point of 169 to 171 °C. Cc1c2c(c(Oc3ccc(C(C)C)cc3)c(C)c1NC(=O)CC(C)(C)C)OC(C)(C)C2 showed a melting point of 148 to 149 °C. COc1ccc(-c2nc(Cn3ccnn3)co2)cc1 gave a melting point of 126 to 127 °C. In the case of ClCCOc1ccc(C2=C(c3ccccc3)CCCc3ccccc32)cc1, the melting point is reported as 171 to 172 °C. O=C(C=Cc1ccccc1)CC(=O)c1ccccc1 gave a melting point of 108 °C. For CCn1ncc2c3[nH]c4cc(C)nn4c(=O)c3cnc21, the melting point was over 300 °C. With COc1c(C)cc2c(c1C)C[C@@H]1c3cc(C(C)C)ccc3N[C@H]21 (relative stereo) the melting point was 106 °C. Molecule CN(C)c1ccc(C2SCC(C(=O)O)N2C(=O)OC(C)(C)C)cc1 (mixture of isomers) has a melting point of 175 °C. Cc1nnc(-c2ccc3ccn(-c4ccc(S(C)(=O)=O)cc4)c3c2)o1 gave a melting point of 228 to 229 °C. Molecule Cc1cc2c(S(C)(=O)=O)nc(CCC(F)(F)F)nc2s1 has a melting point of 60 to 61 °C. COCCOc1cccc(-c2ccnc3c(C(=O)c4cccs4)cnn23)c1 gave a melting point of 112 to 116 °C. Work on Nc1cc2c(cn1)[nH]c1ccccc12 yielded a melting point of 288 to 290 °C. COc1ccc2c(c1)C(=O)C(Cc1nccs1)CO2 (centres undefined) showed a melting point of 71 to 73 °C. In the case of O=c1[nH]c2ccc(-c3cc(CN4CCC(Cc5ccc(F)cc5)CC4)on3)cc2o1, the melting point is reported as 237 to 244 °C. In the case of CC(C)c1cccc(C(C)C)c1OS(=O)(=O)C(OC(N)=O)c1c(C(C)C)cccc1C(C)C (centres undefined), the melting point is reported as 95 to 101 °C. For Oc1cccc(Cc2cnc3c(-c4cc(-c5ccccc5)cs4)cnn3c2O)c1, the melting point was 235 to 237 °C. COC(=O)c1ccc(-c2cc3c(Nc4cccc(Cl)c4)ncnc3[nH]2)cc1 gave a melting point of over 300 °C. For CC(=O)c1ccc(CCC(=O)O)c(C(=O)O)c1, the melting point was 76 °C. CC(=O)OCCc1cc2c(s1)CCC1CC(=O)N(c3ccc(C)cc3)N=C21 (centres undefined) showed a melting point of 73 to 75 °C. CCCC(=O)C1=C(O)CC(c2cccnc2)CC1=O (centres undefined) showed a melting point of 72 °C. Molecule CCCCCC[C@@H](C)Oc1cc2sc(C(=O)OC)c(O)c2cc1[N+](=O)[O-] has a melting point of 54 to 55 °C. For COCC1CC(=O)c2nc(C)c(C)n2C1 (centres undefined), the melting point was 103 to 104 °C. Work on CCc1ccc2ccc(=O)[nH]c2n1 yielded a melting point of 133 to 134 °C. CCOP(=O)(OCC)c1ccc(/C=C(\C)c2ccc3c(c2)C(C)(C)CCC3(C)C)cc1 showed a melting point of 72.5 to 73.5 °C. COCc1cc(O)nc(C)n1 gave a melting point of 168 to 170 °C. Cc1ccc(NC(=S)NCc2ccc3c(c2)CN(C2CCC(=O)NC2=O)C3=O)cc1Cl (centres undefined) gave a melting point of 240 to 242 °C. COc1ccc(-c2nc3n(c2-c2cccnc2)CCC3)cc1 gave a melting point of 164 to 165 °C. CC(C)[C@H](NC(=O)[C@@H]1CCCN1C(=O)OCc1ccccc1)C(=O)O showed a melting point of 132 to 134 °C. With CC1(C)Oc2ccc(C#N)cc2[C@@H](OC2=CC(=O)OC2)[C@@H]1O (relative stereo) the melting point was 111 to 114 °C. In the case of O=C1NCc2ccc3ccccc3c21, the melting point is reported as 138 to 141 °C. Work on C[Si](Cn1ncnc1I)(c1ccc(F)cc1)c1ccc(F)cc1 yielded a melting point of 102 to 104 °C. For CCOC(=O)c1cc(SC#N)c(Br)cc1N, the melting point was 149 to 150 °C. Work on COC(=O)c1ccc(OC2=C3N=C4CCCCC4=C3C(Cc3cccc(F)c3)C=C2)o1 (centres undefined) yielded a melting point of 86 to 88 °C. With Cc1cc(Br)cnc1CCCCN=C(NCCCc1c[nH]cn1)NC(=O)c1ccccc1 the melting point was 126 to 128 °C. Work on COC(=O)c1cc2cc(OC)c(OCCCl)cc2nc1N yielded a melting point of 145 to 157 °C. CCCN(CCC)C(=O)Cc1c(-c2ccccc2)nn2cccnc12 gave a melting point of 103 to 105 °C. For CCOC(=O)C1=C(C)NC(COC(=O)CCN(C)Cc2ccccc2)=C(C(=O)OCC)C1c1ccccc1Cl (centres undefined), the melting point was 86 to 87 °C. Molecule CNC(=O)C=C(c1ccc(C#N)cc1)n1ccnc1 has a melting point of 172 to 180 °C. With CC12CC(F)C3C4CCC(=O)C=C4CCC3C1CCC2=O (centres undefined) the melting point was 173 to 174 °C. With CN(C(=O)c1ccc(-n2cc3ccccc3n2)cc1)C1CCN(C(=O)OC(C)(C)C)CC1 the melting point was 176 to 177 °C. Molecule COC(=O)c1ccc(CN2CCN(c3nc(C)c(C(C)=O)s3)C2=O)cc1 has a melting point of 174 to 175 °C. CCOCCOc1ccc(-c2ccc3c(c2)C=C(C(=O)Nc2ccc(CN(C)C4CCOCC4)cc2)CCS3(=O)=O)cc1Cl showed a melting point of 203 to 205 °C. COc1ccc(C(C)(C)C)cc1NC(=O)Nc1ccc(-c2cnc3c(c2)NC(=O)CO3)c2ccccc12 gave a melting point of over 200 °C. With CC(C)(C)c1cc(CCCBr)cc(C(C)(C)C)c1O the melting point was 52 to 54 °C. Molecule Cc1cc(-c2ncn3c(C(F)(F)F)cc(-c4ccc(Cl)c(C)c4)nc23)ccn1 has a melting point of 246 °C. With CCCCCS(=O)(=O)NC(=O)CCCc1cc(OCCCC)nn1Cc1ccc(Cl)cc1Cl the melting point was 121 to 122 °C. In the case of Cc1c(-c2ccccc2)oc2c(C(=O)NCCCCl)cccc2c1=O, the melting point is reported as 193 to 194 °C. Molecule Cc1c(C(=O)NCc2ccccc2)nc2n1CCc1ccccc1C2OC1CCN(C)CC1 (centres undefined) has a melting point of 161 °C. For CCn1cc(C(=O)O)c(=O)c2cc(F)c(N3CCN(S(=O)(=O)c4ccc(N)cc4)CC3)cc21, the melting point was 283 to 284 °C. CCOCc1nc2c(N)nc3cc(-c4cccc(C(=O)N5CCCC5)c4)cnc3c2n1CC(C)(C)O showed a melting point of 185 to 187 °C. Molecule COc1ccc2ccc(I)cc2c1 has a melting point of 116 °C. With C=Cc1cc2cc(OC)ccc2[nH]1 the melting point was 80 to 81 °C. Work on COc1cc2c(cc1O)CCN(C(=O)c1ccccc1OC)C2 yielded a melting point of 176 to 177 °C. N#CCc1nc2c(s1)Cc1cc(Cl)ccc1-2 gave a melting point of 134 °C. O=C1CCC(c2ccc(NC(=O)C3CC3(Cl)Cl)cc2)=NN1 (centres undefined) showed a melting point of 267 to 268 °C. O=C(C1CCCCC1)N(CCN1CCN(c2cccc3cccnc23)CC1)c1ccccc1OC(F)(F)F gave a melting point of 142 to 143 °C. Molecule CCOC(=O)c1cn(C)c2cc(-n3cccc3)c(F)cc2c1=O has a melting point of 253 to 254 °C. For N#CNC(=O)c1cc2cc(N3CCN(CCCCc4c[nH]c5ccc(C#N)cc45)CC3)ccc2o1, the melting point was 190 °C. Molecule COC(=O)c1c(Br)cc(Br)cc1NC(=O)NCc1ccccc1 has a melting point of over 280 °C. NS(=O)(=O)c1cc(Cl)ccc1S gave a melting point of 142 to 144 °C. With COC1=C(OCCCc2ccccc2)c2c(C)ccnc2C(N)([N+](=O)[O-])C1 (centres undefined) the melting point was 91 to 91.5 °C. Molecule C=C(C)C(=O)NC(C)C has a melting point of 89 °C. O=[N+]([O-])c1cccc(/C=C/c2nc(C3CCCCCCC3)cs2)c1 gave a melting point of 64 to 65 °C. Molecule CCC12CCC3=C(CCc4cc(OC)ccc43)C1CCC2=O (centres undefined) has a melting point of 110 to 125 °C. For O=C1C[C@@H]2[C@@H](CC[C@@H](O)COc3cccc(Cl)c3)[C@H](O)C[C@@H]2O1, the melting point was 102 to 104 °C. COc1ccc(C(=O)Nc2c(Cl)cncc2Cl)cc1OC1COCC1OC (centres undefined) gave a melting point of 175 to 177 °C. Work on CCOC(=O)NC(=O)C1c2ccccc2Oc2ccc(Br)cc21 (racemic) yielded a melting point of 203 °C. For CC(C)=NOCc1nc2c(N)nc3ccccc3c2n1CCNC(=O)NC(C)C, the melting point was 230 to 231 °C. CCOc1ccc2nc(NC(=O)CN3CCN(C(=O)CCCCCCC(=O)N(O)C(C)=O)CC3)sc2c1 gave a melting point of 98 to 103 °C. Molecule COc1nc(OC)c(C(C)C)c(C(=O)c2cc(C)cc(C=CC#N)c2)n1 has a melting point of 144 to 145 °C. In the case of COc1cc(N)c(Cl)cc1C(=O)NC1CCN(CC2CCN(C(=O)c3ccccc3)CC2)CC1, the melting point is reported as 114 to 116 °C. CCCCNc1cc2c(cc1[N+](=O)[O-])OCO2 gave a melting point of 137 °C. With CC1(C)CC(=O)c2c(O)cc(O)cc2C1 the melting point was 115 to 116 °C. In the case of O=C(Nc1cccnn1)N1CCN(c2nc(-c3ccccc3)ns2)CC1, the melting point is reported as 185 to 186 °C. Work on CN(C)c1nc2cc(Cl)c(Cl)cc2n1C1CC(CO)C(O)C1O (centres undefined) yielded a melting point of 190 to 193 °C. CCOC(=O)CC1(c2ccccc2)CCN(C(c2ccccc2)(c2ccccc2)c2ccccc2)CC1 showed a melting point of 120 °C. CC(=O)NCc1ccn(-c2cc3c(cc2C(F)(F)F)[nH]c(=O)c(=O)n3CC(=O)O)c1 showed a melting point of 250 to 251 °C. For CCCSc1nc(C)c(CC(=O)O)n1-c1ccccc1Cl, the melting point was 68 to 71 °C. Work on CCc1nn(C2CCCC2)c2c1CCN(c1ccc(OC)cc1)C2=O yielded a melting point of 64.7 °C. Molecule CCOC(=O)c1cc2c(OCC3CO3)cc(C)cc2[nH]1 (centres undefined) has a melting point of 173 to 175 °C. In the case of CCN(C)c1nc2cc(NC(=O)c3c(C(=O)N4CCC4)cnn3C)ccn2n1, the melting point is reported as 229 to 232 °C.
